Experimental findings from ChEMBL document CHEMBL3997820, “Synthesis and evaluation of anticonvulsant properties of new N-Mannich bases derived from pyrrolidine-2,5-dione and its 3-methyl-, 3-isopropyl, and 3-benzhydryl analogs” (Bioorg Med Chem Lett, 2017) are described below.

The structures appear in SMILES notation. Activity calls are given as the source filed them. The rule behind the calls is not given here.

The ED50 is the midpoint of the dose-response relation. A word on the TD50: it is the 50% point of the dose-response relation for the toxic effect studied.

One data set has as its system Mus musculus. Description: Anticonvulsant activity in albino CD1 mouse assessed as protection against subcutaneous pentylenetetrazole-induced seizures at 300 mg/kg, ip measured after 4 hrs. In kind it is functional, organism-based.
Conditions: not given
Regarding `CC1CC(=O)N(CN2CCN(Cc3ccccc3)CC2)C1=O` (stereo not given), the outcome was inactive.
Take `O=C1CCC(=O)N1CN1CCOCC1`: the outcome was inactive.
For the molecule `CC1CC(=O)N(CN2CCN(C)CC2)C1=O` (stereo not given), the result was inactive.
On the same count and under the same terms, then `O=C1CC(C(c2ccccc2)c2ccccc2)C(=O)N1CN1CCN(c2ncccn2)CC1` (stereo not given), with “inactive”; and `O=C1CCC(=O)N1CN1CCN(C2CCCCC2)CC1`, with “inactive”.

In another data set the test system is Mus musculus. The data set can be described thus: Anticonvulsant activity in ip dosed albino CD1 mouse assessed as minimum dose required to protect subcutaneous pentylenetetrazole-induced seizures in half and more mouse measured after 0.5 hrs. In kind it is functional.
Conditions: not given
Turning to `O=C1CC(C(c2ccccc2)c2ccccc2)C(=O)N1CN1CCN(C2CCCCC2)CC1` (stereo not given), the Activity came to 300 mg/kg.
Still for that read-out and setting: then `CC(C)C1CC(=O)N(CN2CCN(C)CC2)C1=O` (stereo not given), with 100 mg/kg; and `O=C1CC(C(c2ccccc2)c2ccccc2)C(=O)N1CN1CCN(Cc2ccccc2)CC1` (stereo not given), with 100 mg/kg.
On the same count and under the same terms, then `O=C1CC(C(c2ccccc2)c2ccccc2)C(=O)N1CN1CCN(c2ncccn2)CC1` (stereo not given), with 300 mg/kg.

In the next data set the test system is Mus musculus. The data set can be described thus: Anticonvulsant activity in albino CD1 mouse assessed as protection against subcutaneous pentylenetetrazole-induced seizures at 300 mg/kg, ip measured after 0.5 hrs.
Conditions: not given
In kind it is functional, organism-based.
As to `CC(C)C1CC(=O)N(CN2CCN(C3CCCCC3)CC2)C1=O` (stereo not given), the outcome was inactive.
For the molecule `CC1CC(=O)N(CN2CCN(Cc3ccccc3)CC2)C1=O` (stereo not given), the outcome was inactive.
The same measure, in the same setting: next, `O=C1CCC(=O)N1CN1CCOCC1`: “inactive”; `CC1CC(=O)N(CN2CCN(C)CC2)C1=O` (stereo not given): “inactive”; `O=C1CCC(=O)N1CN1CCN(C2CCCCC2)CC1`: “inactive”.
On the same count and under the same terms, then `CC(C)C1CC(=O)N(CN2CCOCC2)C1=O` (stereo not given), with “inactive”.

Another data set has as its system Mus musculus. Description: Anticonvulsant activity in albino CD1 mouse assessed as protection against 32 mA current-induced seizure at 100 mg/kg, ip after 0.5 hrs by 6 Hz psychomotor test. In kind it is functional.
Conditions: not given
`CC(C)C1CC(=O)N(CN2CCN(C)CC2)C1=O` (stereo not given): the outcome was inactive.
Still for that read-out and setting: next, `CC(C)C1CC(=O)N(CN2CCOCC2)C1=O` (stereo not given): “inactive”.

A further data set relates to Mus musculus. Description: Neurotoxicity in albino CD1 mouse assessed as motor impairment at 300 mg/kg, ip measured after 0.5 hrs by rotarod test. It is filed as toxicity, organism-based. To be noted: in vivo. For orientation: The rotarod test checks motor coordination on a turning rod.
Consider `O=C1CC(C(c2ccccc2)c2ccccc2)C(=O)N1CN1CCN(C2CCCCC2)CC1` (stereo not given), for which the Activity result is listed as “Non-Toxic”.
The same measure, in the same setting: next, `CC(C)C1CC(=O)N(CN2CCN(C3CCCCC3)CC2)C1=O` (stereo not given): “Non-Toxic”.
For `CC(C)C1CC(=O)N(CN2CCN(C)CC2)C1=O` (stereo not given), the Activity result was “Non-Toxic”.
Turning to `O=C1CC(C(c2ccccc2)c2ccccc2)C(=O)N1CN1CCN(Cc2ccccc2)CC1` (stereo not given), the Activity result is “Non-Toxic”.
Turning to `CC1CC(=O)N(CN2CCN(Cc3ccccc3)CC2)C1=O` (stereo not given), the Activity entry was “Non-Toxic”.
For `O=C1CCC(=O)N1CN1CCOCC1`, the Activity entry was “Non-Toxic”.
Consider `CC1CC(=O)N(CN2CCN(C)CC2)C1=O` (stereo not given), for which the Activity result was “Non-Toxic”.
Same read-out and setting: next, `O=C1CC(C(c2ccccc2)c2ccccc2)C(=O)N1CN1CCN(c2ncccn2)CC1` (stereo not given): “Non-Toxic”.
For `O=C1CCC(=O)N1CN1CCN(C2CCCCC2)CC1`, the Activity result is on record as “Non-Toxic”.
As to `CC(C)C1CC(=O)N(CN2CCOCC2)C1=O` (stereo not given), the Activity result is recorded as “Non-Toxic”.

The subject of the next data set is Mus musculus. The data set can be described thus: Anticonvulsant activity in albino CD1 mouse assessed as protection against 32 mA current-induced seizure at 100 mg/kg, ip after 4 hrs by 6 Hz psychomotor test. In kind it is functional, organism-based.
Conditions: not given
Consider `CC(C)C1CC(=O)N(CN2CCN(C)CC2)C1=O` (stereo not given), for which the outcome was inactive.
On to `CC(C)C1CC(=O)N(CN2CCOCC2)C1=O` (stereo not given), for which the outcome was inactive.

The subject of another data set is Mus musculus. Description: Anticonvulsant activity in ip dosed albino CD1 mouse assessed as protection against 32 mA current-induced seizure by 6 Hz psychomotor test.
Conditions: not given
It is filed as functional.
In the case of `COC[C@@H](NC(C)=O)C(=O)NCc1ccccc1` [LACOSAMIDE], the ED50 was 5.2 mg/kg.
Still for that read-out and setting: then `CCCC(CCC)C(=O)O` [VALPROIC ACID], with 131 mg/kg.

For the next data set, the system named is Mus musculus. The data set can be described thus: Protection index, ratio of TD50 for motor impairment in ip dosed albino CD1 mouse to ED50 for protection against subcutaneous pentylenetetrazole-induced seizures in ip dosed albino CD1 mouse.
Conditions: not given
With `CC(C)C1CC(=O)N(CN2CCN(C3CCCCC3)CC2)C1=O` (stereo not given), the “Ratio TD50/ED50” value is listed as under 2.17.
Still for that read-out and setting: next, `CC(C)C1CC(=O)N(CN2CCN(C)CC2)C1=O` (stereo not given): over 4.

For another data set, the system named is Mus musculus. Description: Anticonvulsant activity in ip dosed albino CD1 mouse assessed as protection against subcutaneous pentylenetetrazole-induced seizures. It is filed as functional.
Conditions: not given
Take `CC(C)C1CC(=O)N(CN2CCN(C3CCCCC3)CC2)C1=O` (stereo not given): the ED50 is 91.8 mg/kg.
In the case of `CC(C)C1CC(=O)N(CN2CCN(C)CC2)C1=O` (stereo not given), the ED50 was 74.9 mg/kg.
`CCCC(CCC)C(=O)O` [VALPROIC ACID]: the ED50 stood at 240 mg/kg.

A further data set relates to Mus musculus. Description: Anticonvulsant activity in albino CD1 mouse assessed as protection against maximal electroshock-induced seizures at 300 mg/kg, ip measured after 4 hrs. It is filed as functional, organism-based.
Conditions: not given
A general note: In the maximal electroshock model the usual endpoint is tonic extension of the hind limbs.
With `O=C1CC(C(c2ccccc2)c2ccccc2)C(=O)N1CN1CCN(C2CCCCC2)CC1` (stereo not given), the result was inactive.
In the case of `CC(C)C1CC(=O)N(CN2CCN(C3CCCCC3)CC2)C1=O` (stereo not given), the result was inactive.
Same read-out and setting: then `CC(C)C1CC(=O)N(CN2CCN(C)CC2)C1=O` (stereo not given), with “inactive”.
On the same count and under the same terms, next, `O=C1CC(C(c2ccccc2)c2ccccc2)C(=O)N1CN1CCN(Cc2ccccc2)CC1` (stereo not given): “inactive”; `CC1CC(=O)N(CN2CCN(Cc3ccccc3)CC2)C1=O` (stereo not given): “inactive”.
On the same count and under the same terms, next, `O=C1CCC(=O)N1CN1CCOCC1`: “inactive”; `CC1CC(=O)N(CN2CCN(C)CC2)C1=O` (stereo not given): “inactive”; `O=C1CC(C(c2ccccc2)c2ccccc2)C(=O)N1CN1CCN(c2ncccn2)CC1` (stereo not given): “inactive”.
Consider `O=C1CCC(=O)N1CN1CCN(C2CCCCC2)CC1`, for which the result was inactive.
`CC(C)C1CC(=O)N(CN2CCOCC2)C1=O` (stereo not given): the result was inactive.

The test system of a further data set is Mus musculus. The data set can be described thus: Anticonvulsant activity in albino CD1 mouse assessed as protection against maximal electroshock-induced seizures at 300 mg/kg, ip measured after 0.5 hrs. In kind it is functional, organism-based.
Conditions: not given
As to `O=C1CC(C(c2ccccc2)c2ccccc2)C(=O)N1CN1CCN(C2CCCCC2)CC1` (stereo not given), the result was inactive.
On the same count and under the same terms, next, `CC(C)C1CC(=O)N(CN2CCN(C3CCCCC3)CC2)C1=O` (stereo not given): “inactive”; `CC(C)C1CC(=O)N(CN2CCN(C)CC2)C1=O` (stereo not given): “inactive”.
Still for that read-out and setting: then `O=C1CC(C(c2ccccc2)c2ccccc2)C(=O)N1CN1CCN(Cc2ccccc2)CC1` (stereo not given), with “inactive”; and `CC1CC(=O)N(CN2CCN(Cc3ccccc3)CC2)C1=O` (stereo not given), with “inactive”.
On the same count and under the same terms, then `O=C1CCC(=O)N1CN1CCOCC1`, with “inactive”.
As to `CC1CC(=O)N(CN2CCN(C)CC2)C1=O` (stereo not given), the result was inactive.
Still for that read-out and setting: then `O=C1CC(C(c2ccccc2)c2ccccc2)C(=O)N1CN1CCN(c2ncccn2)CC1` (stereo not given), with “inactive”; and `O=C1CCC(=O)N1CN1CCN(C2CCCCC2)CC1`, with “inactive”.
As for `CC(C)C1CC(=O)N(CN2CCOCC2)C1=O` (stereo not given), the outcome was inactive.

Test system in the next data set: not listed separately
Description: Neurotoxicity in ip dosed albino CD1 mouse assessed as motor impairment by rotarod test. It is filed as toxicity, organism-based. To be noted: in vivo.
For the molecule `CC(C)C1CC(=O)N(CN2CCN(C3CCCCC3)CC2)C1=O` (stereo not given), the TD50 was under 200 mg/kg.
The same measure, in the same setting: next, `CC(C)C1CC(=O)N(CN2CCN(C)CC2)C1=O` (stereo not given): over 300 mg/kg; `CC[C@@H](C(N)=O)N1CCCC1=O`: over 500 mg/kg.

The next data set concerns Mus musculus. Description: Anticonvulsant in ip dosed CD1 mouse assessed as time to peak effect. It is filed as functional.
Conditions: not given
For the molecule `COC[C@@H](NC(C)=O)C(=O)NCc1ccccc1` [LACOSAMIDE], the Time was determined as 0.5 h.
Still for that read-out and setting: next, `CC(C)C1CC(=O)N(CN2CCN(C3CCCCC3)CC2)C1=O` (stereo not given): 0.5 h; `CC(C)C1CC(=O)N(CN2CCN(C)CC2)C1=O` (stereo not given): 0.5 h.
In the case of `CCC1(C)CC(=O)NC1=O` (stereo not given) [ETHOSUXIMIDE], the Time worked out at 0.25 h.
Take `CC[C@@H](C(N)=O)N1CCCC1=O`: the Time stood at 1 h.
On the same count and under the same terms, next, `CCCC(CCC)C(=O)O` [VALPROIC ACID]: 0.5 h.

For another data set, the system named is Mus musculus. Description: Neurotoxicity in albino CD1 mouse assessed as motor impairment at 300 mg/kg, ip measured after 4 hrs by rotarod test. In kind it is toxicity, organism-based. Conditions: in vivo.
As to `O=C1CC(C(c2ccccc2)c2ccccc2)C(=O)N1CN1CCN(C2CCCCC2)CC1` (stereo not given), the Activity entry is reported as “Non-Toxic”.
With `CC(C)C1CC(=O)N(CN2CCN(C3CCCCC3)CC2)C1=O` (stereo not given), the Activity result is recorded as “Non-Toxic”.
Consider `CC(C)C1CC(=O)N(CN2CCN(C)CC2)C1=O` (stereo not given), for which the Activity result is on record as “Non-Toxic”.
Regarding `O=C1CC(C(c2ccccc2)c2ccccc2)C(=O)N1CN1CCN(Cc2ccccc2)CC1` (stereo not given), the Activity entry is “Non-Toxic”.
Still for that read-out and setting: then `CC1CC(=O)N(CN2CCN(Cc3ccccc3)CC2)C1=O` (stereo not given), with “Non-Toxic”.
As to `O=C1CCC(=O)N1CN1CCOCC1`, the Activity result is “Non-Toxic”.
`CC1CC(=O)N(CN2CCN(C)CC2)C1=O` (stereo not given): the Activity result is on record as “Non-Toxic”.
Same read-out and setting: next, `O=C1CC(C(c2ccccc2)c2ccccc2)C(=O)N1CN1CCN(c2ncccn2)CC1` (stereo not given): “Non-Toxic”; `O=C1CCC(=O)N1CN1CCN(C2CCCCC2)CC1`: “Non-Toxic”.
Same read-out and setting: next, `CC(C)C1CC(=O)N(CN2CCOCC2)C1=O` (stereo not given): “Non-Toxic”.

The subject of another data set is Mus musculus. The data set can be described thus: Anticonvulsant activity in ip dosed albino CD1 mouse assessed as minimum dose required to protect subcutaneous pentylenetetrazole-induced seizures in half and more mouse measured after 4 hrs. In kind it is functional.
Conditions: not given
Take `O=C1CC(C(c2ccccc2)c2ccccc2)C(=O)N1CN1CCN(C2CCCCC2)CC1` (stereo not given): the Activity is 300 mg/kg.
Same read-out and setting: next, `CC(C)C1CC(=O)N(CN2CCN(C3CCCCC3)CC2)C1=O` (stereo not given): 100 mg/kg; `CC(C)C1CC(=O)N(CN2CCN(C)CC2)C1=O` (stereo not given): 300 mg/kg.
Regarding `O=C1CC(C(c2ccccc2)c2ccccc2)C(=O)N1CN1CCN(Cc2ccccc2)CC1` (stereo not given), the Activity came to 300 mg/kg.
Turning to `CC(C)C1CC(=O)N(CN2CCOCC2)C1=O` (stereo not given), the Activity is 300 mg/kg.
